Here are results for 4 compounds from article PMC9829398 (Plant Biotechnology Journal, 2022).

The Kd is the constant that tells how readily two partners part at equilibrium. For orientation: IC50 means the concentration that gives 50% inhibition.

Data set [1] addresses T1, FER‐CD (Arabidopsis thaliana, UniProt Q9SCZ4). The note with it: read-out: Equilibrium dissociation constant (KD) of binding to FER-CD; MST, 25°C, 100 nM labelled FER-CD, means ± SEs (n = 3).
Data set [2] has as its system Ralstonia solanacearum. In kind it is in vivo. The note with it: Arabidopsis seedlings pretreated with 5 μM, 4 days after inoculation.
The test system of another data set is PER5. Conditions: 5 μM for 24 h, confocal microscopy.
In data set [3] the target is T1, FER‐CD. Kind of data set: biochemical.
The test system of data set [4] is ROS in Col‐0 and fer‐4 roots. Kind of data set: ROS detection in plant roots (H2DCF-DA fluorescence). The note with it: 5 μM for 15 min, vs DMSO and lapatinib.
In data set [5] the test system is FER cytoplasmic domain (FER‐CD). Briefly: FER-CD kinase activity (autophosphorylation), high-throughput screening, Kinase-Lumi luminescent ATP consumption. The note with it: in vitro autophosphorylation. In kind it is biochemical, Arabidopsis thaliana.
The test system of a further data set is FRK1. Conditions: 5 μM for 24 h, confocal microscopy.
The next data set deals with THE1‐CD. Kind of data set: THE1-CD kinase activity (autophosphorylation). The note with it: 5 μM. In kind it is biochemical, Arabidopsis thaliana.
Another data set deals with HERK1‐CD. Briefly: HERK1-CD kinase activity (autophosphorylation). In kind it is biochemical, Arabidopsis thaliana. The note with it: 5 μM.
In the next data set the test system is ANJEA‐CD. Briefly: ANJEA-CD kinase activity (autophosphorylation). In kind it is biochemical, Arabidopsis thaliana. The note with it: 5 μM.
The next data set concerns PKC. The arrangement: method as in Omura et al., [2018]. Conditions: ref Omura et al., [2018]; cited from earlier work.
Data set [6] concerns Ralstonia solanacearum. In kind it is in vivo, tobacco. The note with it: 5 μM irrigated twice two days after inoculation.
Data set [7] deals with Arabidopsis Col‐0 and fer‐4 seedlings. Briefly: Growth of Arabidopsis seedlings (root length, shoot fresh weight). Conditions: 5 μM for 3 days, vs ddH2O (mock) and lapatinib.
Data set [8] relates to Ralstonia solanacearum. In kind it is in vivo, tomato. Conditions: roots pretreated twice with 3 mL of 5 μM.
For data set [9], the system named is Meloidogyne incognita. Kind of data set: Established rice root-knot nematode disease (inhibitor applied after inoculation). In kind it is in vivo. Conditions: in vivo.
A further data set concerns tobacco. Briefly: Growth of tobacco (shoot and root fresh weight, Day 25). Conditions: 5 μM irrigated twice.
Data set [10] relates to Meloidogyne incognita. Briefly: Rice root-knot nematode disease, preventive root treatment. In kind it is in vivo. The note with it: in vivo.
The subject of data set [11] is Ralstonia solanacearum. In kind it is in vivo, tobacco. The note with it: roots pretreated twice with 3 mL of 5 μM.
The next data set deals with PKA. The arrangement: method as in Omura et al., [2018]. The note with it: ref Omura et al., [2018]; cited from earlier work.
The subject of another data set is NtFER‐CD. Kind of data set: NtFER-CD kinase activity (autophosphorylation). In kind it is biochemical, Nicotiana tabacum. The note with it: tobacco FER homologue.

Like-named read-outs stand apart in the source and are kept apart here.

T1 sequence (Q9SCZ4 469-895): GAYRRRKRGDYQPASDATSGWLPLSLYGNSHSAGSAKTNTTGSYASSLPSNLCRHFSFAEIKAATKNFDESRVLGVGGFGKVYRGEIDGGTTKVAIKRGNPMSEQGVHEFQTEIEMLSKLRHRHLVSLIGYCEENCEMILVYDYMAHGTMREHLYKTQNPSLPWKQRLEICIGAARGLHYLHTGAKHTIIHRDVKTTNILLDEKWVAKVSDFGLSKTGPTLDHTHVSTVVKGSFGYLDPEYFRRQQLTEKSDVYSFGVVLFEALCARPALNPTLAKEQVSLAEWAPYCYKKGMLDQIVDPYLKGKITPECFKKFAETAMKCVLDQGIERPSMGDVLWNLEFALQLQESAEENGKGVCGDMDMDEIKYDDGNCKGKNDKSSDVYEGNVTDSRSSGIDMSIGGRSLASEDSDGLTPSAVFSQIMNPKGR

On to `Nc1ncnc2c1ncn2[C@@H]1O[C@H](COP(=O)(O)OP(=O)(O)OP(=O)(O)O)[C@@H](O)[C@H]1O` [ATP], for which the Kd at FER‐CD [1] came out at 18400 nM.
As to `Cc1cc(Nc2ncc(F)c(NC3C4C=CC(C4)C3C(N)=O)n2)ccc1N1CCN(C)CC1` (stereo not drawn) [Cenisertib], the “Cotyledon bleaching caused by R. solanacearum” value (shortened to “Cotyledon bleaching caused”) in the data set with Ralstonia solanacearum [2] is recorded as “turned white”. For the same compound, in the data set on PER5, the “Expression of PER5 in roots” value was “did not affect the expression of PER5”. Moreover, the affinity at FER‐CD [3], expressed as Kd, was 1970 nM. Also, the “Production of ROS in Col-0 roots” value in data set [4] is given as “had no effect on ROS levels”. In data set [5], the “Effect on FER kinase activity” value is “inhibited the kinase activity of FER”. In addition, in the data set on FRK1, the “Expression of FRK1 in roots” value is “increased the expression of FRK1”. In addition, in the data set with THE1‐CD, the “Inhibition rate of THE1-CD kinase activity” value is “higher than 88%”. Besides, in the data set on HERK1‐CD, the “Inhibition rate of HERK1-CD kinase activity” value is listed as “higher than 88%”. Also, in the data set with ANJEA‐CD, the “Inhibition rate of ANJEA-CD kinase activity” value is given as “higher than 88%”.
Take `CN[C@@H]1C[C@H]2O[C@@](C)([C@@H]1OC)n1c3ccccc3c3c4c(c5c6ccccc6n2c5c31)C(=O)NC4` [Staurosporine]: the “Cotyledon bleaching caused” value in the data set on Ralstonia solanacearum [2] was “effectively prevented the cotyledon bleaching”. The IC50 in the data set with PKC was […]. Besides, in the data set on PER5, the “Expression of PER5 in roots” value was “elevated the expression of PER5 to a certain extent”. Also, the “Effect on established tobacco bacterial wilt” value in the data set on Ralstonia solanacearum [6] was “could not completely prevent the occurrence of the diseases or cure already diseased plants”. Moreover, the “Growth of roots and shoots of Arabidopsis Col-0 seedlings” value in data set [7] is “severely inhibited root and shoot growth”. In addition, the “Control of tomato bacterial wilt” value in the data set on Ralstonia solanacearum [8] is reported as “alleviated soil‐borne diseases”. The “Production of ROS in Col-0 roots” value in [4] is “significantly increased the production of ROS”. For the same compound, the “Effect on FER kinase activity” value in data set [5] is “inhibited the kinase activity of FER”. In the data set on FRK1, the “Expression of FRK1 in roots” value is given as “observably enhanced the expression of FRK1” and the Root cell morphology result is “caused expansion of the root cells”. In addition, in the data set on Meloidogyne incognita [9], the “Effect on established rice root-knot nematode disease” value was “could not completely prevent the occurrence of the diseases or cure already diseased plants”. Moreover, the “Growth (biomass) of tobacco shoots and roots” value with tobacco was “did not observably affect the biomass”. In the data set with Meloidogyne incognita [10], the “Control of rice root-knot nematode disease” value is “alleviated soil‐borne diseases”. Moreover, in the data set with Ralstonia solanacearum [11], the “Control of tobacco bacterial wilt” value is “alleviated soil‐borne diseases”. Also, the IC50 in the data set on PKA was […].
On to `CS(=O)(=O)CCNCc1ccc(-c2ccc3ncnc(Nc4ccc(OCc5cccc(F)c5)c(Cl)c4)c3c2)o1` [lapatinib], for which the “Cotyledon bleaching caused” value with Ralstonia solanacearum [2] was “turned white”. Further, the “Expression of PER5 in roots” value in the data set on PER5 was “did not affect the expression levels”. In [5], the “Effect on FER kinase activity” value was “did not affect FER kinase activity”. Moreover, the “Expression of FRK1 in roots” value in the data set on FRK1 is listed as “did not affect the expression levels”. Further, the “Inhibitory effect on NtFER-CD kinase activity” value with NtFER‐CD is listed as “ineffective”.
